Assay results published in paper PMC8279415, “Targeting Acute Myelogenous Leukemia Using Potent Human Dihydroorotate Dehydrogenase Inhibitors Based on the 2-Hydroxypyrazolo[1,5-a]pyridine Scaffold: SAR of the Biphenyl Moiety” (Journal of Medicinal Chemistry, 2021).
≈ marks a conversion by molar mass, not a printed value. Entries after “also recorded” stand apart in the source; their conditions may differ. Like-named read-outs stand apart in the source and are kept apart here.

What was measured:
[1] = Solubility assay at pH 7.4 in PBS; assay type: physicochemical; conditions: for solubility at 24 h: phosphate buffered saline; for solubility at 24 h / solubility in PBS: pH 7.4, 25 °C, LOD 6 μM, 24 h
Description: These suspensions were filtered through a PTFE 0.45 μm filter (VWR), and the solutions were chromatographically analyzed using a PerkinElmer ultrahigh performance liquid chromatography (UHPLC) instrument, equipped with a reverse-phase (RP) C18 Phenomenex column (2.1 mm × 100 mm, 1.7 μm particle size). […] The flow rate was 0.5 mL/min. Standard injection volumes were either 2 or 4 μL for poorly soluble compounds. The detection system was a PerkinElmer diode array detector. The wavelengths that were monitored for each compound were defined according to the compound’s own absorption spectrum. Solubility, expressed as μM concentration of the saturated solution, was calculated via interpolation with external calibration curves that were obtained with solutions of each compound in acetonitrile.

recombinant hDHODH = target: T1, recombinant hDHODH (Homo sapiens, UniProt Q02127); experiment: hDHODH inhibition assay (DCIP reduction); assay type: biochemical
T1 construct: made in house; host or cells: E. coli BL21DE3 PyrD
T1 sequence (Q02127 whole entry): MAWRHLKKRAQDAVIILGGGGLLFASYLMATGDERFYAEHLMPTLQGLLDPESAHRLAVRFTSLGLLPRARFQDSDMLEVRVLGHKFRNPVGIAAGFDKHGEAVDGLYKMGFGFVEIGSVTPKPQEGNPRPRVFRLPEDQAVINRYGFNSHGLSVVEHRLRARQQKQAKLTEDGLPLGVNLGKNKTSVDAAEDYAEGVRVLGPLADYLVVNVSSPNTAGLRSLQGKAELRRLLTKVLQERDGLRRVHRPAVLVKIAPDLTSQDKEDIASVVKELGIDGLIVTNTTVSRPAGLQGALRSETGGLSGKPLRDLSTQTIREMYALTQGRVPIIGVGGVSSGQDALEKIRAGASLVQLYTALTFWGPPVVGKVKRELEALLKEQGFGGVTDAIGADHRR
Description: BL21DE3 PyrD E. coli cells were transformed using the plasmid construct pFN2A–hDHODH (kindly given by Department of Drug Science and Technology, University of Turin, Turin, Italy). The vector produces hDHODH as an N-terminal GST-fusion protein. Cells were grown at 37 °C in LB medium supplemented with 0.1 mM flavin mononucleotide (Cayman Chemical). […] Triton X-100 was added to the lysate, to a final concentration of 1%, before centrifugation at 14 000g for 40 min at 4 °C. The clarified supernatant was incubated with DNase I for 30 min at room temperature, supplemented with 2 mM dithiothreitol (DTT), and filtered through a 0.45 μm syringe filter as previously described by Sainas et al.[18] The GST-fused enzyme was purified from the bacterial lysate using affinity chromatography on immobilized glutathione-Sepharose columns (GE- […]). The GST tag was not cleaved for further analysis. All the reagents used in the protein expression and purification were supplied by Merck/Sigma-Aldrich if not otherwise specified.
The enzymatic inhibition assay was optimized for being performed on a 96-well plate and to achieve higher throughput. For each well of the plate a total volume of 200 μL was used: 5 μL of purified GST-hDHODH; 60 μL of 2,6-dichloroindophenol (DCIP) 50 μM; 20 μL of coenzyme Q10 enzyme 100 μM; 20 μL of dihydroorotate (DHO) 500 μM; Tris-HCl, pH 8, up to a final volume of 200 μL. Inhibitory activity was assessed by monitoring the reduction of DCIP, which is associated with the oxidation of dihydroorotate as catalyzed by the DHODH enzyme. The enzyme was preincubated for 5 min at 37 °C in Tris-HCl, pH 8, with coenzyme Q10, with DCIP (50 μM), and with the compounds to be tested used at different concentrations (final DMSO concentration 0.1% v/v). The reaction was initiated by the addition of DHO (500 μM), and the absorbance kinetic reduction was monitored at λ = 650 nm using a multiplate reader (Tecan, M1000Pro). In order to assess the minimum and maximum absorbance values of the enzymatic reaction, a Min control value was obtained by measuring the absorbance without DHO. Similarly, a Max value was obtained by measuring the absorbance with DHO but no inhibitor. A blank reduction calculation was also performed by measuring the absorbance values using 180 μL of Tris-HCl and 20 μL of coenzyme Q10. The instrument was set to read the absorbance values every 10 s for a total read time of 10 min at 37 °C. […] Values are the mean ± SE of three independent experiments.

[2] = LogD7.4, shake-flask n-octanol/PBS; conditions: for logD: n-octanol/PBS; for logD / logD at 20 min: pH 7.4; for LogD^7.4 ± SD: n-octanol/PBS pH 7.4, shake-flask; for Log D7.4 ± SD (supplement CSV): supplementary CSV
Description: The partition coefficients between n-octanol and PBS at pH 7.4 (LogD^7.4) were obtained using the shake-flask technique at room temperature. In the shake-flask experiments, 50 mM phosphate buffered saline, pH 7.4, was used as the aqueous phase. The organic (n-octanol) and aqueous phases were mutually saturated by shaking for 4 h. The compounds were solubilized in the buffered aqueous phase at the highest concentration compatible with solubility, and appropriate amounts of n-octanol were added. The two phases were shaken for about 20 min, by which time the partitioning equilibrium of solutes had been reached, and then centrifuged (10 000 rpm, 10 min). The concentration of the solutes was measured in the aqueous phase using a UV spectrophotometer (Varian Cary 50BIO); absorbance values (recorded for each compound at the wavelength of maximum absorption) were interpolated in calibration curves obtained using standard solutions of the compounds (r^2 > 0.99). Each log D value is an average of at least six measurements.

THP1 cells [3] = experiment: Fixed-concentration screening of differentiation (CD14) and apoptosis (annexin V) in THP1, with or without uridine; assay type: cell-based, human
Description: DMSO (dimethyl sulfoxide) acts as the negative control group as it was used to solubilize hDHODH inhibitors. ∗, ∗∗, ∗∗∗ represent the statistical significance for apoptosis (respectively p < 0.05, < 0.01, and <0.001). #, ##, and ### represent the statistical significance for differentiation (respectively p < 0.05, <0.01, and <0.001). The statistical significance is calculated by comparing the compounds to DMSO.
The statistical significance is calculated by comparing the compounds to DMSO.

[4] = In vitro metabolic profile in rat-liver microsomes; assay type: in vitro ADME; conditions: for metabolites identified in sample C: active rat-liver microsomes and regenerating system, HPLC-HRMS
Description: SyGMa (systematic generation of potential metabolites) software, a tool that lists predicted metabolites with associated empirical probability scores, was used to identify putative metabolites, which were then investigated by analyzing samples with liquid chromatography coupled to high-resolution mass spectrometry (HPLC–HRMS). […] The full-scan MS data acquired for all of the samples were analyzed to find the m/z values of the predicted molecular structures. In order to exclude interfering signals, the results obtained were compared to blank samples and common background peaks were not considered.
Rat-liver microsomes (Sprague-Dawley, male, Sigma-Aldrich; 20 mg/mL protein concentration) were incubated with the candidate compound solution (5 μM final concentration, with 1% DMSO) and Tris buffer (0.1 M, pH = 7.4). The regenerating system, which slowly generated coenzyme units over the incubation time, leading to a better reproduction of in vivo behavior, was composed of MgCl2 (3.3 mM), NADP^+ (1.3 mM), Glu6P (3.5 mM), and Glu6P dehydrogenase (0.5 U/mL).
The incubation time started with the addition of the microsomes suspension (0.5 mg/mL).
Metabolic reactions were stopped by adding 100 μL of cooled acetonitrile to the 100 μL sample of the incubation mixture. Samples were centrifuged to provoke protein precipitation, and the supernatants were immediately stocked at −80 °C, until analysis, to prevent the potential degradation of unstable products.
The products of in vitro metabolism were identified using a high-resolution mass spectrometer (Q-Exactive Orbitrap, Thermo Scientific) coupled to an HPLC instrument (1200 system Agilent). All analytes were separated on an Ascentis C18 column (150 mm × 2.1 mm, 5 μm particle size) maintained at 35 °C. The elution mixture was composed of solvent A (0.1% formic acid in water for positive ionization mode and 0.05% acetic acid for negative ionization mode) and solvent B (acetonitrile). […] MS2-DIA scans were acquired at R = 17 500 and with variable collision energies ranging from 30 to 45, depending on the m/z of the parent ion.

Jurkat cells = experiment: CFSE-based cytotoxic activity assay; conditions: concentration inducing cytotoxicity ≥30%, 3 days
U937 cells [5] = experiment: Annexin V apoptosis assay in U937; conditions: EC50 ratio vs brequinar
U937 cells [6] = experiment: Differentiation assay (CD11b expression) in U937; conditions: EC50 ratio vs brequinar
THP1 cells [7] = experiment: Annexin V apoptosis assay in THP1; conditions: EC50 ratio vs brequinar
[8] = mean ± SE of three independent experiments, read-out: hDHODH, IC50 ± SE
[9] = supplementary CSV, values differ from Table 2, read-out: hDHODH IC50 ± SE (supplement CSV)

Row | Compound | solubility at 24 h [1] | IC50 (recombinant hDHODH; [8]) | logD [2] | solubility in PBS [1] | IC50 (recombinant hDHODH; [9]) | further results
1 | O=C(Nc1c(F)c(F)c(-c2ccnc(C(F)(F)F)c2)c(F)c1F)c1c(O)nn2ccccc12 [Compound 9, 2-Hydroxy-N-(2,3,5,6-tetrafluoro-4-(2-(trifluoromethyl)pyridin-4-yl)phenyl)pyrazolo[1,5-a]pyridine-3-carboxamide] | 20.2 µM (≈ 9.5 µg/mL) | 150 ± 15 nM | 1.84 ± 0.06 |  |  | solubility in PBS relative to 1 [1]: 1.5 times; activity in cells (differentiation and apoptosis) (THP1 cells [3]; THP1, 1 μM): basically inactive
2 | O=C(Nc1c(F)c(F)c(-c2ccccc2)c(F)c1F)c1c(O)nn2ccccc12 [Compound 1] |  |  |  |  |  | metabolites identified in sample C [4]: monohydroxylated, dihydroxylated, and methoxylated metabolites
3 | O=C(Nc1c(F)c(F)c(-c2ccccc2)c(F)c1F)c1c(O)nn2c1CCCC2 [Compound 5, 2-Hydroxy-N-(2,3,5,6-tetrafluoro-[1,1′-biphenyl]-4-yl)-4,5,6,7-tetrahydropyrazolo[1,5-a]pyridine-3-carboxamide] |  | 5.8 ± 0.4 nM |  | <LOD |  | logD at 20 min [2]: 2.36 ± 0.02
4 | CCCOc1cccc(-c2c(F)c(F)c(NC(=O)c3c(O)nn4ccccc34)c(F)c2F)c1 [Compound 17, 2-Hydroxy-N-(2,3,5,6-tetrafluoro-3′-propoxy-[1,1′-biphenyl]-4-yl)pyrazolo[1,5-a]pyridine-3-carboxamide] |  |  | 3.28 ± 0.12 |  |  | cytoxicity Jurkat (effect ≥30% ± SD) (Jurkat cells): >100 µM; metabolites identified in sample C [4]: monohydroxylated and dealkylated metabolites; time after which parent compound was no longer present ([4]; rat-liver microsomes with regenerating system): ≤ 30 min; metabolic stability ([4]; rat-liver microsomes, 2 h): fast metabolism; also recorded: weaker in vitro stability; efficacy in comparison with brequinar, apoptosis U937 (U937 cells [5]): 19 times; efficacy in comparison with brequinar, differentiation U937 (U937 cells [6]): 41 times; superiority to brequinar, apoptosis THP1 (THP1 cells [7]): 13 times; activity in cells (differentiation and apoptosis) (THP1 cells [3]; THP1, 0.1 μM): highly active
5 | O=C(Nc1c(F)c(F)c(-c2ccccc2)c(F)c1F)c1c(O)nn2c(Cl)cccc12 [Compound 4, 7-Chloro-2-hydroxy-N-(2,3,5,6-tetrafluoro-[1,1′-biphenyl]-4-yl)pyrazolo[1,5-a]pyridine-3-carboxamide] |  | 3.4 ± 0.5 nM |  | <LOD |  | logD at 20 min [2]: 2.81 ± 0.13
6 | O=C(Nc1c(F)c(F)c(-c2ccc(C(F)(F)F)cc2)c(F)c1F)c1c(O)nn2ccccc12 [Compound 12, 2-Hydroxy-N-(2,3,5,6-tetrafluoro-4′-(trifluoromethyl)-[1,1′-biphenyl]-4-yl)pyrazolo[1,5-a]pyridine-3-carboxamide] | < 6 µM | 71.8 ± 9.42 nM |  | <LOD | 29.6 ± 3.2 nM | LogD^7.4 ± SD [2]: insoluble; Log D7.4 ± SD (supplement CSV) [2]: Insoluble
7 | O=C(Nc1c(F)c(F)c(N2CCOCC2)c(F)c1F)c1c(O)nn2ccccc12 [Compound 6, 2-Hydroxy-N-(2,3,5,6-tetrafluoro-4-morpholinophenyl)pyrazolo[1,5-a]pyridine-3-carboxamide] | 438 µM (≈ 180 µg/mL) | 90.9 ± 13.1 nM | 0.66 ± 0.08 |  |  | activity in cells (differentiation and apoptosis) (THP1 cells [3]; THP1, 1 μM): basically inactive
8 | O=C(Nc1c(F)c(F)c(-c2cccc(O)c2)c(F)c1F)c1c(O)nn2ccccc12 [Compound 14, 2-Hydroxy-N-(2,3,5,6-tetrafluoro-3′-hydroxy-[1,1′-biphenyl]-4-yl)pyrazolo[1,5-a]pyridine-3-carboxamide] | 55.3 µM (≈ 23.1 µg/mL) | 2.78 ± 0.32 nM | 1.82 ± 0.09 |  | 2 ± 0.67 nM | solubility in PBS relative to 1 [1]: around 5 times; activity in cells (differentiation and apoptosis) (THP1 cells [3]; THP1, 1 μM): basically inactive
9 | O=C(Nc1c(F)c(F)c(-c2cccs2)c(F)c1F)c1c(O)nn2ccccc12 [Compound 7, 2-Hydroxy-N-(2,3,5,6-tetrafluoro-4-(thiophen-2-yl)phenyl)pyrazolo[1,5-a]pyridine-3-carboxamide] |  | 1.35 ± 0.45 nM |  |  | 1.37 ± 0.1 nM | 
10 | O=C(Nc1c(F)c(F)c(-c2ccc(F)cc2)c(F)c1F)c1c(O)nn2ccccc12 [Compound 10, 2-Hydroxy-N-(2,3,4′,5,6-pentafluoro-[1,1′-biphenyl]-4-yl)pyrazolo[1,5-a]pyridine-3-carboxamide] | < 6 µM | 17.7 ± 3.3 nM |  | <LOD | 8.32 ± 1.36 nM | LogD^7.4 ± SD [2]: insoluble; Log D7.4 ± SD (supplement CSV) [2]: Insoluble
11 | Cc1cccc2c(C(=O)Nc3c(F)c(F)c(-c4ccccc4)c(F)c3F)c(O)nn12 [Compound 2] |  | 4.3 ± 0.5 nM |  |  |  | 
